Reference: patent US20220110902A1, “Methods of treating amyloid-beta peptide diseases” (Ecole Polytechnique Federale de Lausanne, priority 2016, published 2022)
Entries after “also recorded” stand apart in the source; their conditions may differ.

Experiments:
GMC101 worms [1] = test: Worm phenotypic assays in GMC101: mobility, paralysis and death score; assay type: in vivo, C. elegans; conditions: GMC101, period of 4 days; UA 20 uM and 50 uM
Procedure: Doxycycline was obtained from Sigma-Aldrich and dissolved in water. For experiments, a final concentration of 15 μg/mL was used. Olaparib (AZD2281) was dissolved in DMSO to experimental concentrations of 300 nM. Nicotinamide Riboside triflate (NR) was custom synthesized by Novalix (www.novalix-pharma.com/) and dissolved in water, and used at a final concentration of 1 mM. Compounds were added just before pouring the plates. For phenotyping experiments, parental F0 L4 worms were allowed to reach adulthood and lay eggs on the treatment plates. The deriving F1 worms were therefore exposed to compounds during the full life from eggs until death. For RNA analysis experiments, synchronized L1 worms were exposed to the compounds until harvest. To ensure a permanent exposure to the compound, plates were changed twice a week.
Mobility: C. elegans movement analysis was performed as described, starting from day 1 of adulthood, using the Movement Tracker software. The experiments were repeated at least twice.
Paralysis and death score: 5 L4 worms per condition were allowed to reach adulthood and lay eggs on the treatment plates. 45 to 60 deriving F1 worms per condition were manually scored for paralysis after poking, as already described. Worms that were unable to respond to any, repeated stimulation, were scored as dead. Results are representative of the data obtained in at least three independent experiments.
(§1) During the assays, animals were exposed to Myriocin (dissolved in DMSO) from the egg stage on plates seeded with live HT115 E. coli bacteria. Control plates seeded with the same bacteria were prepared with the corresponding concentrations of DMSO. The day of the experiment (day 1 of adulthood, 3 days after hatching), the GMC101 population was shifted to 25° C. in order to induce the amyloid deposition in the body wall muscle. ˜1000 worms were used for western blotting assays.
C. elegans movement analysis was performed as described (Mouchiroud et al., 2016), using the Movement Tracker software. ˜50 adult worms were used per condition for movement assays.
To score for paralysis and death, 50 worms per condition were manually scored after poking as described (McCool et al., 2012; Florez-McClure et al., 2007). Worms that were unable to respond to repeated stimulation were scored as dead.
as §1, with “the compound UA” for “Myriocin (dissolved in DMSO)”, “from” for “from the”, “DMSO (0.1%).” for “DMSO.”, “˜50 adult” for “˜1000”, “per conditions.” for “for western blotting assays.”
C. elegans movement analysis was performed as described in (Mouchiroud et al., 2016), using the Movement Tracker software within a period of 4 days.

GMC101 worms [2] = test: Western-blot of amyloid aggregation in GMC101 worms; assay type: in vivo, C. elegans; conditions: GMC101, 24 h after shift to 25° C.; UA 20 uM and 50 uM
Procedure: C. elegans: Worms were lysed by sonication with RIPA buffer containing protease and phosphatase inhibitors (Roche), and analyzed by SDS-PAGE and western blot. The concentration of extracted protein was determined by using the Bio-Rad Protein Assay. Proteins were detected using the following antibodies: anti-β-actin (Sigma), anti-tubulin (Santa Cruz), atp-5, ucr-1 (Oxphos cocktail, Abcam), anti-β-Amyloid, 1-16 (6E10) (BioLegend). In addition to the housekeeping proteins, loading was monitored by Ponceau Red to ensure a homogeneous loading. Pixel intensity was quantified by using ImageJ software. Each immunoblot experiment was repeated at least twice using 3 biological replicates each containing approximately 1000 worms.
as §1
(§2) Worms were lysed by sonication with RIPA buffer containing protease and phosphatase inhibitors (Roche), and analyzed by western blot. The concentration of extracted protein was determined by the Bio-Rad Protein Assay. Proteins were detected using the following antibodies: anti-β-actin (Sigma) and anti-β-Amyloid (BioLegend). In addition to the housekeeping proteins, loading was monitored by Ponceau Red to ensure a homogeneous loading. The immunoblot experiment employed 3 biological replicates, each containing approximately 1000 worms.
as §2, with “extracted proteins” for “extracted protein”, “3 biologicals” for “3 biological”
The GMC101 worms were recovered 24 h after being shifted at 25° C. The population was treated with UA at two different concentrations, ie 20 uM and 50 uM.

C. elegans = conditions: cited from earlier work
[3] = tested on: mouse models of age-related decline of muscle function; conditions: mouse models of age-related decline of muscle function, and young rats; cited from earlier work
[4] = tested on: SH-SY5Y neuroblastoma cell line expressing the APP Swedish K670N/M671L double mutation (APPSwe); test: Immunostaining of intracellular Aβ deposits in APPSwe SH-SY5Y cells; assay type: cell-based, human
Procedure: The SH-SY5Y neuroblastoma cell line expressing the APP Swedish K670N/M671L double mutation (APPSwe) was a kind gift of Prof. Cedazo-Minguez (Karolinska Institute, Sweden). Cells were grown in DMEM/F-12, supplemented with 10% fetal bovine serum (FBS, Gibco), GlutaMAX (100×, Gibco) and penicillin/streptomycin (1×, Gibco). Cells were selected in 4 μg/mL Geneticin® Selective Antibiotic (G418 Sulfate, Sigma) and grown for three generations before experiments with cells plated and passaged at 4×10^3 cells/ml and 60% confluence, respectively. Cells were cultured at 37° C. under a 5% CO2 atmosphere and tested for mycoplasma using Mycoprobe (#CUL001B, R&D systems) following the manufacturer's instructions. Cells were treated with 10 μg/mL dox, NR 1 or 3 mM, ISRIB 0.5 μM (Sigma), as indicated for 24 hours before cell harvesting or fixation. For the immunostaining, cells were fixed with 1× Formal-Fixx (Thermo Scientific) for 15 min. After 15 min permeabilization with 0.1% Triton X-100, cells were blocked in PBS supplemented with 5% fetal bovine serum for 1 hour and immunostained overnight, at 4° C., with the anti-β-Amyloid 1-42 (1:100, Millipore AB5078P). The secondary antibody was coupled to the Alexa-488 fluorochrome (Thermo Scientific), and nuclei were stained with DAPI (Invitrogen, D1306). After washing in PBS, cell slides were mounted with Dako mounting medium (Dako, S3023) and examined with a Zeiss LSM 700 confocal microscope (Carl Zeiss MicroImaging) equipped with a Plan-Apochromat 40×/1.3 NA oil immersion objective lens using a 488 nm laser. Laser power was set at the lowest intensity allowing clear visualization of the signal. Imaging settings were maintained with the same parameters for comparison between different experimental conditions.
The SH-SY5Y neuroblastoma cell line expresses the APP Swedish K670N/M671L double mutation (APPSwe) (Zheng et al., 2011) and accumulates intracellular Aβ amyloid aggregates. Cells were grown in DMEM/F-12, supplemented with 10% fetal bovine serum (FBS, Gibco), GlutaMAX (100×, Gibco) and penicillin/streptomycin (1×, Gibco). Cells were selected in 4 μg/mL Geneticin® Selective Antibiotic (G418 Sulfate, Sigma) and grown for three generations before experiments with cells plated and passaged at 4×10{right arrow over ( )}3 cells/ml and 60% confluence, respectively. Cells were cultured at 37° C. under a 5% CO2 atmosphere and tested for mycoplasma using Mycoprobe (#CUL001B, R&D systems), following the manufacturer's instructions. Myriocin was dissolved in DMSO.
Cells were treated with 10 uM Myriocin and Fumonisin B1 for 24 hours before harvesting or fixation (FIG. 3A). For immunostaining, cells were fixed with 1× Formal-Fixx (Thermo Scientific) for 15 min. […]

SH-SY5Y(APPSwe) cells = test: Western-blot and transcript analysis in SH-SY5Y(APPSwe) cells; assay type: cell-based, human; conditions: ISRIB 0.5 μM with dox 10 μg/mL, 24 h
Procedure: Human: Total RNA was extracted using guanidine-isothiocyanate lysis (PureLink, Ambion, Waltham, Mass.) from cortex samples, and RNA integrity and concentration was verified using Bioanalysis (Agilent, Santa Clara, Calif.). Samples were randomized based on diagnostic group and assayed in triplicate on a real-time PCR cycler (ABI 7500, Applied Biosystems, Foster City) in 96-well optical plates. qPCR was performed using Taqman hydrolysis probe primer sets (Applied Biosystems) specific for the following human transcripts: HSPA9, HSPD1, YMEIL1, DNM1L, BECN1, SQSTM1, PARK2, COX5A, CYC1. A primer set specific for human GAPDH was used as a control housekeeping transcript. For the APPSwe-expressing SH-SY5Y cell line, total RNA was extracted […] using TriPure RNA isolation reagent, and expression of selected transcripts was analyzed using the LightCycler480 system (Roche) and LightCycler® 480 SYBR Green I Master reagent (Roche). The GAPDH gene was used as housekeeping reference. The ddCT method was employed to determine relative levels of each amplicon. […] The SH-SY5Y neuroblastoma cell line expressing the APP Swedish K670N/M671L double mutation (APPSwe) was a kind gift of Prof. Cedazo-Minguez (Karolinska Institute, Sweden). Cells were grown in DMEM/F-12, supplemented with 10% fetal bovine serum (FBS, Gibco), GlutaMAX (100×, Gibco) and penicillin/streptomycin (1×, Gibco). Cells were selected in 4 μg/mL Geneticin® Selective Antibiotic (G418 Sulfate, Sigma) and grown for three generations before experiments with cells plated and passaged at 4×10^3 cells/ml and 60% confluence, respectively. Cells were cultured at 37° C. under a 5% CO2 atmosphere and tested for mycoplasma using Mycoprobe (#CUL001B, R&D systems) following the manufacturer's instructions. Cells were treated with 10 μg/mL dox, NR 1 or 3 mM, ISRIB 0.5 μM (Sigma), as indicated for 24 hours before cell harvesting or fixation. For the immunostaining, cells were fixed with 1× Formal-Fixx (Thermo Scientific) for 15 min. […]

GMC101 worms [5] = test: Development and growth of GMC101 worms; assay type: in vivo, C. elegans; conditions: GMC101, eggs to day 1 of adulthood; dox 15 μg/mL
Procedure: Development: 50 adult worms per condition were transferred on NGM agar plates (10 worms per plate) and allowed to lay eggs for 3 h. Then they were removed and the number of eggs per plate was counted. 72 h later, the number of L1-L3 larvae, L4 and adult worms was counted. The experiment was done twice with five individual plates.

O=c1oc2cc(O)ccc2c2ccc(O)cc12 [UA, 3,8-Dihydroxyurolithin]
spontaneous movement (mobility) (GMC101 worms [1]): dose-dependently increased; also recorded: dose-dependent increase
accumulation of amyloid-β aggregates (GMC101 worms [2]): dose-dependently reduced; also recorded: dose-dependent reduction
mitochondrial respiratory capacity (C. elegans; C. elegans during aging): maintaining mitochondrial respiratory capacity
accumulation of dysfunctional mitochondria with age (C. elegans; C. elegans): prevent the accumulation of dysfunctional mitochondria with age
activity during aging (mobility and pharyngeal pumping) (C. elegans; C. elegans): maintained normal activity during aging
lifespan (C. elegans; C. elegans): extended lifespan
exercise capacity [3]: significantly improved exercise capacity

CCCC[C@H](C)[C@@H](OC(=O)C[C@H](CC(=O)O)C(=O)O)[C@@H](C[C@H](C)C[C@@H](O)CCCC[C@@H](O)C[C@H](O)[C@H](C)N)OC(=O)C[C@H](CC(=O)O)C(=O)O [Fumonisin B1, (2S,2'S)-2,2′-{[(5S,6R,7R,9R,11S,16R,18S,19S)-19-Amino-11,16,18-trihydroxy-5,9-dimethylicosane-6,7-diyl]bis[oxy(2-oxoethane-2,1-diyl)]}disuccinic acid]
intracellular Aβ deposits ([4]; 10 uM, 24 hours): significantly reduced; also recorded: markedly reduced

O=C(COc1ccc(Cl)cc1)NC1CCC(NC(=O)COc2ccc(Cl)cc2)CC1 (centres unmarked) [ISRIB, reference compound]
amyloid clearance by dox after ISRIB pretreatment ([4]; ISRIB 0.5 μM with dox 10 μg/mL, 24 h): prevented amyloid clearance by dox
dox-mediated induction of ATF4 target genes CHOP and CHAC1 (SH-SY5Y(APPSwe) cells): hampered the dox-mediated induction

C[C@H]1c2cccc(O)c2C(=O)C2=C(O)[C@]3(O)C(=O)C(C(N)=O)=C(O)[C@@H](N(C)C)[C@@H]3[C@@H](O)[C@@H]21 [dox, doxycycline]
development and growth delay (GMC101 worms [5]): without causing major development and growth delays
